From patent publication US12714706B2, “Methods of treating small cell lung cancer with lurbinectedin formulations” (PHARMA MAR, S.A., priority 2019, dated 2026)
In brackets after ≈: the same amount, converted by molar mass. Several values for one entry are separate records, joined by “and”; a condition that tells them apart may be missing. Identical values can stand only once.

Experiments:
SCLC [1] = test: Phase 2 trial of lurbinectedin monotherapy in SCLC: antitumor activity (ORR, DOR, PFS, OS; RECIST v1.1); type: in vivo, human
Procedure: A clinical study of lurbinectedin monotherapy for patients collectively afflicted with SCLC who have refractory or resistant disease, as defined herein, was carried out. In this clinical single-arm, multi-center, open-label, phase 2 trail, a cohort of 105 patients, who had measurable disease, including patients whose SCLC was unresponsive to first-line platinum-containing chemotherapy (cisplatin, carboplatin or oxaliplatin) (refractory) and patients whose SCLC recurred within or equal to 90 days after cessation of first-line therapy (resistant), were treated with lurbinectedin at a dosage of 3.2 mg/m^2 given intravenously over a period of 1 hour every 21 days. Lurbinectedin was provided as a sterile isotonic aqueous solution for IV infusion as described below.
Starting dose was 3.2 mg/m^2. Dose was capped at body surface area of […] (e.g. dose not allowed to exceed 6.4 mg). Patients received lurbinectedin i.v. as a one-hour infusion on Day 1 every three weeks until disease progression or unacceptable toxicity. Three weeks was defined as one treatment cycle.
The primary objective of this study was to assess the antitumor activity of lurbinectedin in terms of overall response rate (ORR) as primary endpoint and supported by duration of response (DOR) as secondary endpoint. ORR was assessed using RECIST v1.1. on a set of measurable lesions identified at baseline as target lesions or as non-target lesions (if any), and followed until disease progression (PD) by an appropriate method.
Radiological tumor assessment (CT scan or MRI) was performed at baseline, and every 6 weeks from the onset of the study treatment until cycle 6 or evidence of PD, and every 9 weeks thereafter. If an objective response was observed, according to RECIST v1.1., it had to be confirmed by the same method at least four weeks after the date of the first documentation of response.
ORR was defined as the percentage of evaluable patients with a confirmed response, either complete (CR) or partial response (PR), from the start of treatment to the date of progression or the start of a subsequent therapy or end of patients follow-up according to RECIST v1.1. DOR was calculated […], recurrence, or death due to any cause in the responder patients. The date of response, the date of radiological or clinical PD, according to the investigator assessment and the independent assessment by an independent review committee (IRC), and the date of death was registered and documented, as appropriate. The IRC determined the patient's best response and assigned the date of first documentation of response and progression/censoring according to RECIST v1.1.
Counts and percentages, with their corresponding exact 95% confidence intervals were calculated for the binominal endpoints (i.e. ORR, clinical benefit). Time-to-event variables (OS, PFS, and DOR) and their set time estimates (i.e. PFS4/6 and OS6/12) were analyzed according to Kaplan-Meier method. The evaluation of the efficacy endpoints evaluated by IA and IRC were analyzed and compared.

patients = settings: previous analysis, dose based on body surface area; cited from earlier work
SCLC [2] = test: Post-hoc exploratory analysis of response in SCLC patients who had previously received immunotherapy; type: in vivo, human; settings: for Lurbinectedin treatment: OS / Lurbinectedin treatment: DoR / Lurbinectedin treatment: PFS: individual SCLC patients with prior immunotherapy
Excerpt: Post-hoc exploratory analysis was done on the response in patients who had previously received immunotherapy (n=8).

[3] = Maximum solubility of lurbinectedin in different molarities of lactic acid; type: physicochemical; settings: lactic acid solution, aqueous buffer
Procedure: As such, in embodiments, a concentrated lurbinectedin solution is prepared in organic acid before addition of other excipients. In preferred embodiments, the organic acid has a pH less than 4, preferably less than 3.5, more preferably less than 3, or around 3. The maximum solubility of lurbinectedin was investigated in different molarities of the organic acid lactic acid. […] In a preferred embodiment, lurbinectedin is dissolved in an organic acid with a molarity of around 0.1M to 0.5M, preferably around 0.2M to 0.4M, more preferably around 0.3M organic acid. An exemplary molarity is 0.31M organic acid.

advanced solid tumors = test: Phase 1 dose escalation of lurbinectedin plus irinotecan: MTD, RD and dose limiting toxicities; type: in vivo, human
Procedure: A clinical study of lurbinectedin in combination with irinotecan for patients afflicted with solid tumors was carried out. […] Patients were enrolled following a standard 3+3 dose escalation design. Phase Ib/II expansion part at the recommended dose (RD) was performed to explore efficacy in indications where antitumor activity signal was observed.
Three weeks was defined as one treatment cycle.
Primary outcome measures were (1) maximum tolerated dose (MTD) and (2) recommended dose (RD). MTD was defined as lowest dose explored during dose escalation which one third or more of evaluable patients develop DLT in Cycle 1. RD was defined as highest dose level explored during dose escalation in which fewer than one third of evaluable patients develop DLT during Cycle 1.

[4] = Maximum solubility of lurbinectedin in various buffers pH 4 (impact of buffer molarity)
Procedure: Bulk solutions of phosphate, acetate, citrate, lactate and succinate buffers were prepared to determine maximum solubility of lurbinectedin.

[5] = Lurbinectedin plus irinotecan trial: pharmacokinetics of lurbinectedin, irinotecan and SN-38; settings: combination: lurbinectedin 1.0-2.4 mg/m2 + irinotecan 75 mg/m2; n=39; mean (SD)
[6] = chemotherapy-free interval less than 90 days (resistant)
[7] = resistant disease, listed as Lurbinectedin
[8] = lurbinectedin D1 q3w with irinotecan 75 mg/m2 D1 & D8 q3w

COc1ccc2[nH]c3c(c2c1)CCN[C@]31CS[C@@H]2c3c(OC(C)=O)c(C)c4c(c3[C@H](COC1=O)N1[C@@H]2[C@H]2c3c(cc(C)c(OC)c3O)C[C@@H]([C@@H]1O)N2C)OCO4 [lurbinectedin, Lurbinectedin]
Median overall survival of patients with initial objective response (post-hoc) (SCLC [1]; 37 responders, overall population): 12.6 months
Duration of response, median (SCLC [1]; IRC assessment, overall): 5.1 months
Overall response rate (CR + PR) (SCLC [1]; Investigator assessment, resistant disease (CTFI <90 days, n = 45)): 22.2%
Patients alive at 1 year after the first dose (SCLC [1]; chemotherapy-free interval less than 90 days (n = 45)): 16%
Median overall survival (SCLC [1]; [6]): 5.0 months
Median progression-free survival (SCLC [1]; [6]): 2.6 months
Disease progression with new lesions in the CNS (SCLC [1]; of 94 patients who discontinued lurbinectedin): 9%
Median overall survival of patients with initial objective response (post-hoc) (SCLC [1]; responders with resistant disease): 10.9 months
Incidence of febrile neutropenia (patients): lower than 10%
Lurbinectedin treatment: OS (SCLC [2]; resistant disease): 12.6 months
Lurbinectedin treatment: DoR (SCLC [2]; [7]): 5.6 months and 5.3 months and 5.1 months
Lurbinectedin treatment: OS (SCLC [2]; [7]): 12.0 months and 4.9 months and 14.9 months and 6.9+ months
Lurbinectedin treatment: PFS (SCLC [2]; [7]): 6.0 months and 1.3 months and 8.3 months and 6.9 months and 6.3 months
Lurbinectedin treatment: DoR (SCLC [2]; sensitive disease): 6.4 months and 2.8 months
Lurbinectedin treatment: OS (SCLC [2]; sensitive disease): 9.3 months and 10.8 months and 2.3 months
Lurbinectedin treatment: PFS (SCLC [2]; sensitive disease): 7.6 months and 4.7 months and 1.3 months
Response to single-agent lurbinectedin in patients who had previously received immunotherapy (SCLC [2]; post-hoc, n=8): trend for a better response
solubility (physchem; sodium acetate buffer, pH 3, aqueous buffer): 950 µg/mL (≈ 1210 µM)
solubility (physchem; sodium acetate buffer, pH 4, aqueous buffer): 940 µg/mL (≈ 1200 µM)
solubility (physchem; sodium acetate buffer, pH 5, aqueous buffer): 30 µg/mL (≈ 38.2 µM)
solubility (physchem; sodium citrate buffer, pH 3, aqueous buffer): 940 µg/mL (≈ 1200 µM)
solubility (physchem; sodium citrate buffer, pH 4, aqueous buffer): 930 µg/mL (≈ 1180 µM)
solubility (physchem; sodium citrate buffer, pH 5, aqueous buffer): 500 µg/mL (≈ 637 µM)
solubility (physchem; sodium lactate buffer, pH 3, aqueous buffer): 940 µg/mL (≈ 1200 µM)
solubility (physchem; sodium lactate buffer, pH 4, aqueous buffer): 900 µg/mL (≈ 1150 µM)
solubility (physchem; sodium lactate buffer, pH 5, aqueous buffer): 30 µg/mL (≈ 38.2 µM)
solubility (physchem; sodium succinate buffer, pH 3, aqueous buffer): 960 µg/mL (≈ 1220 µM)
solubility (physchem; sodium succinate buffer, pH 4, aqueous buffer): 970 µg/mL (≈ 1240 µM)
solubility (physchem; sodium succinate buffer, pH 5, aqueous buffer): 40 µg/mL (≈ 51 µM)
solubility ([3]; 0.05M lactic acid): 7200 µg/mL (≈ 9170 µM)
solubility ([3]; 0.5M lactic acid): 90400 µg/mL (≈ 115000 µM)
DLTs/Evaluable patients (advanced solid tumors; Dose Level 1: lurbinectedin 1.0 mg/m2 D1 + irinotecan 75 mg/m2 D1 & D8, q3w): 1/6
DLTs/Evaluable patients (advanced solid tumors; Dose Level 2: lurbinectedin 1.5 mg/m2 D1 + irinotecan 75 mg/m2 D1 & D8, q3w): 1/4
DLTs/Evaluable patients (advanced solid tumors; Dose Level 3 (without G-CSF): lurbinectedin 2.0 mg/m2 D1 + irinotecan 75 mg/m2 D1 & D8, q3w): 4/11
DLTs/Evaluable patients (advanced solid tumors; Dose Level 3* (with G-CSF): lurbinectedin 2.0 mg/m2 D1 + irinotecan 75 mg/m2 D1 & D8, q3w): 3/12
DLTs/Evaluable patients (advanced solid tumors; Dose Level 4* (with G-CSF): lurbinectedin 2.4 mg/m2 D1 + irinotecan 75 mg/m2 D1 & D8, q3w): 2/3
MTD with G-CSF (lurbinectedin dose) (advanced solid tumors; [8]): 2.4 mg/m2
MTD without G-CSF (lurbinectedin dose) (advanced solid tumors; [8]): 2.0 mg/m2
RD with G-CSF (lurbinectedin dose) (advanced solid tumors; [8]): 2.0 mg/m2
Lurbinectedin maximum solubility ([4]; Monopotassium phosphate buffer pH 4, 0.06-01 M): 320 µg/mL
Lurbinectedin maximum solubility ([4]; Sodium acetate buffer pH 4, 0.06-01 M): 860 µg/mL
Lurbinectedin maximum solubility ([4]; Sodium lactate buffer pH 4, 0.06-01 M): 920 µg/mL
HL [5]: 44.2 (22.4) h
